Data from paper PMC9532951, “Identification and characterization of a novel SNAT2 (SLC38A2) inhibitor reveals synergy with glucose transport inhibition in cancer cells” (Frontiers in Pharmacology, 2022).
Several values for one entry are separate records, joined by “and”; a condition that tells them apart may be missing. Equal entries are not always repeated. Each block holds one compound with its values, some of them ahead of it.

Assays:
HCC1806 cells = test: [14C]alanine uptake in non-depleted HCC1806 cells; type: cell-based, human; settings: amino acid replete HCC1806 cells
Protocol: (§1) Functional characterisation of plasma membrane transporters in human cancer cells was determined at 37°C using an array of radiolabelled amino acid substrates. Modified Hanks HEPES-buffered salts solution (mHBSS; 137 mM NaCl; 5.4 mM KCl; 2.7 mM K2HPO4; 1 mM CaCl2; 0.5 mM MgCl2; 0.44 mM KH2PO4; 0.4 mM MgSO4; 5 mM D-glucose; 5 mM HEPES; pH 7.4) was used to wash and incubate cells where sodium dependent transport was measured, while N-methyl-D-glucamine (NMDG) and potassium salts substituted sodium in NMDG mHBSS to measure sodium independent uptake. For the assay, cells were seeded in 35 mm dishes and, once confluent, were washed thrice with warm mHBSS solution and incubated with mHBSS containing an 100 µM amino acid at a final specific activity of ≥2000 cpm/nmol (U-[^14C]amino acids were from PerkinElmer). After 6 min, cells were washed thrice with ice-cold mHBSS, lysed with 500 µl of 0.1 M HCl, detached with a cell scraper and triturated. A 400 µl aliquot was used for scintillation counting, while the remainder was saved for protein mass quantification by Bradford assay. Transport rates were normalised to the protein content of the culture dish.

SNAT2 = test: Radiolabelled proline uptake in amino acid depleted SKOV3 cells; type: cell-based, human; settings: for inhibition of proline uptake: 10 mM
Protocol: as §1
IC50 were calculated using equation y=ymax(1−x/x+IC50)

SNAT1 and SNAT2 [1] = test: FMP assay in HCC1806 clones C10 (ASCT2ko) and D126 (ASCT2ko, SNAT2ko); type: cell-based, human; settings: MeAIB 10 mM; glutamine 1 mM
Protocol: (§2) To delete the SNAT2 (SLC38A2) gene in modified HCC1806 cells (clone C10 nullizygous for ASCT2 ([Broer et al., 2019])), the GeneArt CRISPR Nuclease Vector with OFP Reporter Kit (Invitrogen; A21174) was employed and complementary 19–20 bp long single-stranded oligonucleotides with overhangs were designed to produce a guide RNA (gRNA) for the Cas9 nuclease that would target exon 7 of the SNAT2 gene. Colonies were analysed by sequencing using the U6 primer included in the GeneArt CRISPR Nuclease Vector with OFP Reporter kit. Plasmids that contained the correct CRISPR nuclease construct were then used to transfect HCC1806 cells with Lipofectamine 2000 (Invitrogen). Prior to transfection, medium was replaced with 2 ml of fresh DMEM/F-12 (supplemented with 10% heat-inactivated FBS and 2 mM glutamine). Plasmid DNA (4 µg) and 10 µL of Lipofectamine 2000 were incubated separately for 5 min at room temperature in 500 µl of Opti-MEM (Invitrogen) before being combined and incubated for a further 30 min at room temperature. The DNA-Lipofectamine complex was then added to the cells in a dropwise manner and allowed to be absorbed over 6 h at 37°C, after which the medium was renewed with fresh DMEM/F-12. Cells were checked for red fluorescence using an EVOS FL cell imaging system (Thermo Fisher Scientific) 48–72 h post transfection. Subsequently, cells were detached using 0.25% Trypsin EDTA. After harvesting and washing thrice with PBS (pH 7.4), cells were resuspended in PBS (pH 7.4) supplemented with 5 mM glucose and 1% dialysed and heat inactivated FBS and passed through a 100 μm cell strainer. The cell filtrate was then pelleted once more and resuspended in the same buffer. Cells were sorted using an ARIA II FACS machine and individually dispensed into the wells of a 96-well plate. Nullizygous clones were identified using a series of assays including the FLIPR membrane potential assay, western blotting and sequencing.
(§3) The FLIPR Membrane Potential Blue Explorer Kit (Molecular Devices) was used to characterise inhibitors and to optimise a high-throughput compound screen. Cells were seeded at approximately 60,000 cells/well on a 96-well plate and allowed to attach and grow overnight in a cell incubator. The next day, the cells were washed once with mHBSS and incubated in a starvation medium (composed of mHBSS with 1% dialysed heat-inactivated FBS, 23 mM NaHCO3, 10 U/ml penicillin and 10 μg/ml streptomycin) for 24 h. Cells were then washed once with mHBSS and incubated with 50 µl of the mHBSS-resuspended FMP assay dye and 50 µl of mHBSS (with or without inhibitors) and incubated at room temperature for 30 min. The plate was then placed in an EnSpire Multimode plate reader (PerkinElmer) and four sequential measurements of fluorescence were recorded as a baseline reference. Immediately after the baseline measurements were taken, 25 µl of 5 mM glutamine dissolved in mHBSS was injected into each well and the plate was shaken orbitally for 5 s before a series of consecutive fluorescence measurements were taken. The excitation wavelength was set to 530 nm and the emission was detected at 565 nm. The Δ fluorescent signal reported in the figures was taken 30 s after substrate addition. After the assay was complete, the liquid content of the plate was carefully removed, and the cell monolayer inspected to ensure it remained intact throughout the course of the assay.

SNAT1/2 [2] = test: [14C]glutamine uptake in HCC1806 cells; type: cell-based, human
Protocol: as §1

SNAT1/2 [3] = test: FMP assay: depolarisation by amino acid substrates in amino acid depleted HCC1806 cells; type: cell-based, human; settings: for FMP fluorescence reading: amino acid 1 mM final
Protocol: as §3, with “The next day, the cells were washed once with mHBSS and incubated in a starvation medium (composed of mHBSS with 1% dialysed heat-inactivated FBS, 23 mM NaHCO3, 10 U/ml penicillin and 10 μg/ml streptomycin) for 24 h.” left out, “The Δ fluorescent signal reported in the figures was taken 30 s after substrate addition.” left out

SNAT1 = target: T1, SNAT1 (Homo sapiens, UniProt Q9H2H9); test: Alanine uptake in HCC1806 D126 (ASCT2ko, SNAT2ko) cells; type: cell-based
T1 construct: SNAT1 remained active as indicated by the Na^+-dependence of alanine uptake; endogenous in cells; host or cells: HCC1806 clone D126 (ASCT2ko, SNAT2ko), amino acid depleted for 24 h
T1 sequence (Q9H2H9 1-487): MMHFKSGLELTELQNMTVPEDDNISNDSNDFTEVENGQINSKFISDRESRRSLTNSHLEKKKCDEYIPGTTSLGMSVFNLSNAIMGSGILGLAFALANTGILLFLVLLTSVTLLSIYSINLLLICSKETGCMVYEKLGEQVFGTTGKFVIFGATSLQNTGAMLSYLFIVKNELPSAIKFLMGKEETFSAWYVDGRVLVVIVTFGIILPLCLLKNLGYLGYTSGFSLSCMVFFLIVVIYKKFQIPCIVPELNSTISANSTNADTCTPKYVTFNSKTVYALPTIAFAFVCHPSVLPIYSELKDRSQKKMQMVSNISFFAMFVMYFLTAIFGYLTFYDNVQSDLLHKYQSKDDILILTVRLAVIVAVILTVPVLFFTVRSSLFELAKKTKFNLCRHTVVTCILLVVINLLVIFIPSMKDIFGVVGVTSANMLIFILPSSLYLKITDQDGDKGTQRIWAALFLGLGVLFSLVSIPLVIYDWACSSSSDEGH
Protocol: as §2, §1

SNAT1 and SNAT2 [4] = test: High-throughput compound screen, FMP assay in 384-well format (primary, confirmatory, control compounds); type: cell-based, human; settings: 10 mM, 1 mM glutamine
Protocol: For the high-throughput compound screen, the FMP assay was adapted into a 384-well format within the ANU Centre for Therapeutic Discovery. […] Compounds Australia stores compounds under robust environmental conditions and supplies them in assay ready plate format. We screened 33,934 compounds from the Collection Scaffold Library. Cells (10,000/well) were seeded into Corning 384-well black walled plates (CLS3985; Sigma-Aldrich) using a Multidrop Combi liquid dispensing robot (Thermo Fisher) in a 40 µl volume. Once seeded, cells were allowed to grow in a microplate incubator (Liconic) for 24 h at 37°C (humidified atmosphere with 95% air and 5% CO2). Subsequently, plates were washed thrice with 50 µL of mHBSS using a 405 TS washer (BioTek). Then, 50 µl of starvation medium was added and cells were incubated again for 24 h.
Assay-ready compound plates (384 well plates containing compound or DMSO controls) were then prepared prior to addition to cells. In addition to the supplied compounds, 5 µl γ-glutamyl-hydroxamate (GHX, 60 mM dissolved in mHBSS, serving as an inhibitor control) was added into inhibitor control wells using a JANUS G3 robot (PerkinElmer). Subsequently, 25 uL of mHBSS was dispensed into all wells of the 384 well plate using a Multidrop Combi. All samples were then mixed using the JANUS G3 robot and 15 µl dispensed on top of the cell monolayer to reach a final concentration of 10.05 µM.
The FMP dye was solved freshly with mHBSS, 20 µl of which was deposited into each well using the Multidrop Combi, and the cells were incubated at room temperatur for 30 min. Each plate was then placed in an EnVision microplate reader (PerkinElmer) and a single baseline measurement was taken for each well (bottom reads excitation at 531, emission at 579 nm). The plate was then transferred to the Multidrop Combi and 10 µl/well of 5 mM glutamine was dispensed into each well. After linearly shaking for 5 s, microplates were returned to the EnVision microplate reader for a single post-injection measurement per well. The change of fluorescence was measured after 60 s.
Z′ scores were calculated from the controls onboard each of the 384-well plates assayed in the primary and secondary screen as described by Zhang et al., ([Zhang et al., 1999]). For the control inhibitor γ-glutamyl-hydroxamate (GHX) a Z’ score of 0.717 was determined, which was a sufficient signal for a HTS.

Compound: N[C@@H](CCC(=O)Nc1ccc([N+](=O)[O-])cc1)C(=O)O [GPNA, γ-glutamyl-p-nitroanilide]
- inhibition of alanine transport (HCC1806 cells): inhibited a large fraction of alanine transport

- inhibition of alanine uptake (SNAT1; HCC1806 D126, Figure 4B, betaine and MeAIB 10 mM): inhibition
Compound: CNC(C)(C)C(=O)O [MeAIB, N-methyl-aminoisobutyric acid]
- inhibition of proline uptake (SNAT2; Figure 4A): strong inhibition
- inhibition of proline uptake (SNAT2; Figure 4D (15 h starvation)): almost completely
- Proline uptake (nmol / mg protein x 6 min) (SNAT2; Figure 4A, 10mM, replicates 1-3): 3.275 nmol / mg protein x 6 min and 3.216 nmol / mg protein x 6 min and 2.965 nmol / mg protein x 6 min
- Proline uptake (nmol / mg protein x 6 min) (SNAT2; Figure 5B, reference inhibitors, replicates): 1.301 nmol / mg protein x 6 min and 1.471 nmol / mg protein x 6 min and 1.547 nmol / mg protein x 6 min
- FMP signal in D126 cells (ASCT2ko, SNAT2ko) compared to C10 (SNAT1 and SNAT2 [1]): 42%
- Glutamine uptake (SNAT1/2 [2]; AA+ (growth medium), 100 µM glutamine, replicates 1-3): 39.8616 nmol / mg protein x 6 min and 35.3498 nmol / mg protein x 6 min and 40.7838 nmol / mg protein x 6 min
- Glutamine uptake (SNAT1/2 [2]; AA- (starvation medium 24 h), 100 µM glutamine, replicates 1-3): 8.629 nmol / mg protein x 6 min and 3.7831 nmol / mg protein x 6 min and 8.492 nmol / mg protein x 6 min
- Glutamine uptake (nmol / mg protein x 6 min) (SNAT1/2 [2]; Figure 3D, replicates 1-3): 35.1959 nmol / mg protein x 6 min and 29.1234 nmol / mg protein x 6 min and 25.7847 nmol / mg protein x 6 min
- reduction of glutamine uptake (SNAT1/2 [2]; amino acid depleted HCC1806 cells (24 h), 100 µM glutamine): 80%
- inhibition of glutamine uptake (SNAT1/2 [2]; fed HCC1806 cells): barely inhibited
- FMP response as substrate (SNAT1/2 [3]; 1 mM): weaker signal
- FMP fluorescence reading (SNAT1/2 [3]; t=0 s): 49084 and 50100 and 40663
- FMP fluorescence reading (SNAT1/2 [3]; t=15 s): 81984 and 86589 and 75934
- FMP fluorescence reading (SNAT1/2 [3]; t=30 s): 86634 and 91101 and 78520
- FMP fluorescence reading (SNAT1/2 [3]; t=45 s): 90066 and 93398 and 80464
- FMP fluorescence reading (SNAT1/2 [3]; t=60 s): 92350 and 95113 and 80900
- FMP fluorescence reading (SNAT1/2 [3]; t=75 s): 92919 and 96006 and 80942
- FMP fluorescence reading (SNAT1/2 [3]; t=90 s): 93944 and 96169 and 81331
- FMP fluorescence reading (SNAT1/2 [3]; t=105 s): 93680 and 96448 and 80487
- FMP fluorescence reading (SNAT1/2 [3]; t=120 s): 93733 and 95947 and 80206
- FMP fluorescence reading (SNAT1/2 [3]; t=135 s): 93032 and 95155 and 78841
- FMP fluorescence reading (SNAT1/2 [3]; t=-15 s): 48467 and 50314 and 40490
- FMP fluorescence reading (SNAT1/2 [3]; t=-30 s, replicates 1-3): 48576 and 50230 and 40217
- Alanine uptake (nmol / mg protein x 6 min) (SNAT1; Figure 4B, 10mM, replicates 1-3): 11.1023 nmol / mg protein x 6 min and 10.5839 nmol / mg protein x 6 min and 9.888 nmol / mg protein x 6 min

Compound: OC[C@H]1OC(O)[C@H](O)[C@@H](O)[C@@H]1O (stereo partly shown) [glucose]
- influence on FMP signal (SNAT1 and SNAT2 [4]): did not influence the signal

Compound: CC(=O)C(=O)O [pyruvate]
- influence on FMP signal (SNAT1 and SNAT2 [4]): did not influence the signal
